Results published in ChEMBL document CHEMBL5329222, “Discovery of novel tubulin CBSI (R)-9k from the indanone scaffold for the treatment of colorectal cancer” (RSC Med Chem, 2023).
Activity calls are given as the source filed them. The calls are words filed in the database; no cut-off is given here.

Experiments:
HCT-116 [1] = experiment: Induction of cell cycle arrest in human HCT-116 cells assessed as accumulation of cells at G1 phase at 3 uM incubated for 24 hrs by flow cytometry analysis (reference value: 68.74%); format: functional
HCT-116 [2] = experiment: Induction of apoptosis in human HCT-116 cells assessed as late apoptotic cells at 3 uM incubated for 24 hrs by annexin V-FITC/7-AAD staining based flow cytometry analysis (reference value: 1.53%); format: functional
hERG (KCNH2) = hERG (KCNH2) (Homo sapiens, UniProt Q12809); experiment: Inhibition of hERG expressed in CHO cells at 40 uM by automated patch clamp analysis relative to control; format: toxicity, cell-based; conditions: CHO cells that express hERG
HCT-116 [3] = experiment: Inhibition of cell migration in human HCT-116 cells at 1 uM measured for 24 hrs by scratch wound healing assay; format: functional
[4] = Potency index, ratio of test compound IC50 to 5-fluorouracil IC50 for cytotoxicity against human HUVEC cells assessed as inhibition of cell growth incubated 1.5 hrs by MTT assay; format: toxicity, cell-based; conditions: read-out: Ratio IC50
[5] = Potency index, ratio of test compound IC50 to 5-fluorouracil IC50 for cytotoxicity against HEK293 cells assessed as inhibition of cell growth incubated 1.5 hrs by MTT assay; format: toxicity, cell-based; conditions: human, read-out: Ratio IC50
HCT-116 [6] = experiment: Induction of apoptosis in human HCT-116 cells assessed as early apoptotic cells at 3 uM incubated for 24 hrs by annexin V-FITC/7-AAD staining based flow cytometry analysis (reference value: 5.82%); format: functional
HCT-116 [7] = experiment: Induction of apoptosis in human HCT-116 cells assessed as viable cells at 6 uM incubated for 24 hrs by annexin V-FITC/7-AAD staining based flow cytometry analysis (reference value: 90.19%); format: functional; conditions: read-out: Activity
Tubulin (Bos taurus) [8] = molecular target: T1, Tubulin (Bos taurus) (UniProt Q6B856+Q862L2+Q862F3); experiment: Inhibition of bovine brain tubulin polymerization at 12 uM measured at 2 to 20 mins by spectrophotometer analysis relative to control; conditions: time 2-20 min
HCT-116 [9] = experiment: Induction of cell cycle arrest in human HCT-116 cells assessed as accumulation of cells at G1 phase at 1.5 uM incubated for 24 hrs by flow cytometry analysis (reference value: 68.74%); format: functional
HCT-116 [10] = experiment: Induction of cell cycle arrest in human HCT-116 cells assessed as accumulation of cells at G2 phase at 1.5 uM incubated for 24 hrs by flow cytometry analysis (reference value: 18.25%); format: functional
HCT-116 [11] = experiment: Inhibition of colony formation in human HCT-116 cells incubated for 48 hrs by crystal violet staining based analysis; format: functional, cell-based; conditions: dose 0.1-2 µM
HCT-116 [12] = experiment: Antiproliferative activity against human HCT-116 cells assessed as inhibition of cell growth at 2 uM incubated for 2 weeks by […]; format: functional, cell-based
HCT-116 [13] = experiment: Induction of cell cycle arrest in human HCT-116 cells assessed as accumulation of cells at G2/M phase at 1.5 uM incubated for 24 hrs by flow cytometry analysis (reference value: 18.25%); format: functional
HCT-116 [14] = experiment: Induction of cell cycle arrest in human HCT-116 cells assessed as accumulation of cells at G2 phase at 3 uM incubated for 24 hrs by flow cytometry analysis (reference value: 18.25%); format: functional
HCT-116 [15] = experiment: Induction of cell cycle arrest in human HCT-116 cells assessed as accumulation of cells at G2/M phase at 3 uM incubated for 24 hrs by flow cytometry analysis (reference value: 18.25%); format: functional
[16] = Cytotoxicity against HEK293 cells assessed as inhibition of cell growth incubated 1.5 hrs by MTT assay; format: toxicity, cell-based; conditions: human
HCT-116 [17] = experiment: Inhibition of cell migration in human HCT-116 cells at 2 uM measured for 24 hrs by scratch wound healing assay; format: functional
HCT-116 [18] = experiment: Induction of apoptosis in human HCT-116 cells assessed as early apoptotic cells at 6 uM incubated for 24 hrs by annexin V-FITC/7-AAD staining based flow cytometry analysis (reference value: 5.82%); format: functional
SW480 = experiment: Growth inhibition of human SW480 cells incubated for 1.5 hrs by MTT assay; format: functional, cell-based
[19] = Cytotoxicity against human HUVEC cells assessed as inhibition of cell growth incubated 1.5 hrs by MTT assay; format: toxicity, cell-based
HCT-116 [20] = experiment: Inhibition of colony formation in human HCT-116 cells at 1 uM incubated for 48 hrs by crystal violet staining based analysis; format: functional; conditions: HCT-116, 48 h, values are per cent of control
HCT-116 [21] = experiment: Induction of apoptosis in human HCT-116 cells assessed as necrotic cells at 3 uM incubated for 24 hrs by annexin V-FITC/7-AAD staining based flow cytometry analysis (reference value: 2.46%); format: functional
[22] = molecular target: Voltage-gated inwardly rectifying potassium channel KCNH2 (Homo sapiens, UniProt Q12809); experiment: Inhibition of hERG expressed in CHO cells at 40 uM by automated patch clamp analysis; format: toxicity, cell-based
HCT-116 [23] = experiment: Inhibition of colony formation in human HCT-116 cells at 0.1 uM incubated for 48 hrs by crystal violet staining based analysis; format: functional; conditions: HCT-116, 48 h, values are per cent of control
HCT-116 [24] = experiment: Induction of apoptosis in human HCT-116 cells assessed as early apoptotic cells at 1.5 uM incubated for 24 hrs by annexin V-FITC/7-AAD staining based flow cytometry analysis (reference value: 5.82%); format: functional
HCT-116 [25] = experiment: Induction of cell cycle arrest in human HCT-116 cells assessed as accumulation of cells at S phase at 3 uM incubated for 24 hrs by flow cytometry analysis (reference value: 3.61%); format: functional
Tubulin = Tubulin (Bos taurus, UniProt Q6B856+Q862L2+Q862F3); experiment: (§1) Inhibition of bovine brain tubulin polymerization measured at 2 to 20 mins by spectrophotometer analysis
Tubulin (Bos taurus) [26] = molecular target: T1, Tubulin (Bos taurus); experiment: as §1; conditions: time 2-20 min
HCT-116 [27] = experiment: Induction of cell cycle arrest in human HCT-116 cells assessed as accumulation of cells at G1 phase at 6 uM incubated for 24 hrs by flow cytometry analysis (reference value: 68.74%); format: functional
HCT-116 [28] = experiment: Induction of apoptosis in human HCT-116 cells assessed as late apoptotic cells at 6 uM incubated for 24 hrs by annexin V-FITC/7-AAD staining based flow cytometry analysis (reference value: 1.53%); format: functional
HCT-116 [29] = experiment: Induction of cell cycle arrest in human HCT-116 cells assessed as accumulation of cells at S phase at 6 uM incubated for 24 hrs by flow cytometry analysis (reference value: 3.61%); format: functional
HCT-116 [30] = experiment: Induction of apoptosis in human HCT-116 cells assessed as late apoptotic cells at 1.5 uM incubated for 24 hrs by annexin V-FITC/7-AAD staining based flow cytometry analysis (reference value: 1.53%); format: functional
HCT-116 [31] = experiment: Induction of apoptosis in human HCT-116 cells assessed as necrotic cells at 6 uM incubated for 24 hrs by annexin V-FITC/7-AAD staining based flow cytometry analysis (reference value: 2.46%); format: functional
[32] = molecular target: Tubulin beta (Homo sapiens) (UniProt P68371+Q9H4B7+Q13509+P04350+Q3ZCM7+P07437+Q13885+Q9BVA1+Q9BUF5+A6NNZ2); experiment: Binding affinity to beta-tubulin colchicine binding site in human HCT-116 cells assessed as inhibition of EBI-beta-tubulin adduct band formation at 1 to 25 uM preincubated for 2 hrs followed by EBI addition measured after 1.5 hrs by EBI competition based Western blotting analysis; format: cell-based; conditions: dose 1-25 µM, time 3.5 hrs

hERG (KCNH2), sequence (Q12809 whole entry): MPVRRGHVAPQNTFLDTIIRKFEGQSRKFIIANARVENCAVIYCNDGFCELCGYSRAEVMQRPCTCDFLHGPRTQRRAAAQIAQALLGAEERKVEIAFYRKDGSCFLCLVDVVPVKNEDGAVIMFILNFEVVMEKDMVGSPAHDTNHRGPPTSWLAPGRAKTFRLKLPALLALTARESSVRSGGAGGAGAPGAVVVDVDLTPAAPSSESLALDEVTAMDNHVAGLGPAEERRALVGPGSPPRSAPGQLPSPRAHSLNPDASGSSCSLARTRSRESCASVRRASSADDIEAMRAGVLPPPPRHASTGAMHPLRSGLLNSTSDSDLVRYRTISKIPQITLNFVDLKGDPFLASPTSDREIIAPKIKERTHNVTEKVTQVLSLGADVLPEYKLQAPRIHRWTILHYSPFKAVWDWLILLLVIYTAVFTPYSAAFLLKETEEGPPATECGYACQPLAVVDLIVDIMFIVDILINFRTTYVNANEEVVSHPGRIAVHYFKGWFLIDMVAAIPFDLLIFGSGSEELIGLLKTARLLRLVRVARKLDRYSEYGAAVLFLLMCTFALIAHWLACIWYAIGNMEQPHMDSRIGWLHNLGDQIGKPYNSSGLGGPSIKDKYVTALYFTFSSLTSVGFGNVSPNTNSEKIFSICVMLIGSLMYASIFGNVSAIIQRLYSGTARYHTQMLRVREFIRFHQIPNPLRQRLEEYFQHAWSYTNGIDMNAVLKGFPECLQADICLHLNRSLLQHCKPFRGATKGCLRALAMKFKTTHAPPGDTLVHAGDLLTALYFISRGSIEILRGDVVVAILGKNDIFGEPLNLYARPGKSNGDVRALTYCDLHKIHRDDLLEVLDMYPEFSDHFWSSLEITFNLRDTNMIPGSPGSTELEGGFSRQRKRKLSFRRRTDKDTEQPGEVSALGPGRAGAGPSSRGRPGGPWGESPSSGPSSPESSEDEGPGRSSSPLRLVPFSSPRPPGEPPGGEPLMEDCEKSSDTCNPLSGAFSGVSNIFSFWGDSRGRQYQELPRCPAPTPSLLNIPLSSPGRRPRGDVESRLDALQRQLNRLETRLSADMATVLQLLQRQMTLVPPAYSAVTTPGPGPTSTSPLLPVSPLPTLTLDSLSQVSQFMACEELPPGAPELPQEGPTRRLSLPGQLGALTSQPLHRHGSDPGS
Voltage-gated inwardly rectifying potassium channel KCNH2, sequence (Q12809 whole entry): as above

## CCOc1ccc([C@H]2CC(=O)c3cc(OC)c(OC)c(OC)c32)cc1F
HCT-116 [1]
  Activity: 62.85%
HCT-116 [2]
  Activity: 5.07%
hERG (KCNH2)
  inhibition at 40 µM: 42%
HCT-116 [3]
  inhibition at 1 µM: 43%
[4]
  selectivity ratio at 1.5 h: 1.6
[5]
  selectivity ratio at 1.5 h: 1.39
HCT-116 [6]
  Activity: 18.75%
HCT-116 [7]
  viability at 6 µM: 60.5%
Tubulin (Bos taurus) [8]
  inhibition: 66%
HCT-116 [9]
  Activity: 65.69%
HCT-116 [10]
  Activity: 24.4%
HCT-116 [11]
  inhibition: Dose-Dependent Effect
HCT-116 [12]
  Activity: Active
HCT-116 [13]
  Activity: 24.41%
HCT-116 [14]
  Activity: 28.73%
HCT-116 [15]
  Activity: 28.73%
[16]
  IC50 at 1.5 h: 7.45 µM
HCT-116 [17]
  inhibition at 2 µM: 55%
HCT-116 [18]
  Activity: 21.2%
SW480
  IC50: 1310 nM
[19]
  IC50 at 1.5 h: 15 µM
HCT-116 [20]
  growth, % of control at 1 µM: 1.3%
HCT-116 [21]
  Activity: 3.2%
[22]
  IC50: > 40 µM
HCT-116 [23]
  growth, % of control at 0.1 µM: 57.9%
HCT-116 [24]
  Activity: 8.12%
HCT-116 [25]
  Activity: 6.6%
Tubulin
  IC50: 6.1 µM
Tubulin (Bos taurus) [26]
  inhibition: Dose-Dependent Effect
HCT-116 [27]
  Activity: 35.2%
HCT-116 [28]
  Activity: 13.77%
HCT-116 [29]
  Activity: 5.1%
HCT-116 [30]
  Activity: 2.85%
HCT-116 [31]
  Activity: 4.48%
[32]
  Activity: Active
